Reference: US9986740B2, “Methods of identifying insect-TRPA1 modulators” (BRANDEIS UNIVERSITY, priority 2010, dated 2018)
Positions count from the first letter of the chain named. Entries after “also recorded” stand apart in the source; their conditions may differ. Like-named read-outs stand apart in the source and are kept apart here.

Key:
dTRPA1-2C = target: T1, dTRPA1-2C (Drosophila melanogaster, UniProt Q7Z020, C650S/C670S); test: Two-electrode voltage clamping on oocytes expressing mutant dTRPA1-2C; type: cell-based; settings: cysteines 650 and 670 mutated to serines; 0.1, 0.5, 1.0 mM AITC
T1 construct: expressed in transfected cells; host or cells: Xenopus laevis oocytes
T1 sequence (Q7Z020 1-1197 C650S/C670S): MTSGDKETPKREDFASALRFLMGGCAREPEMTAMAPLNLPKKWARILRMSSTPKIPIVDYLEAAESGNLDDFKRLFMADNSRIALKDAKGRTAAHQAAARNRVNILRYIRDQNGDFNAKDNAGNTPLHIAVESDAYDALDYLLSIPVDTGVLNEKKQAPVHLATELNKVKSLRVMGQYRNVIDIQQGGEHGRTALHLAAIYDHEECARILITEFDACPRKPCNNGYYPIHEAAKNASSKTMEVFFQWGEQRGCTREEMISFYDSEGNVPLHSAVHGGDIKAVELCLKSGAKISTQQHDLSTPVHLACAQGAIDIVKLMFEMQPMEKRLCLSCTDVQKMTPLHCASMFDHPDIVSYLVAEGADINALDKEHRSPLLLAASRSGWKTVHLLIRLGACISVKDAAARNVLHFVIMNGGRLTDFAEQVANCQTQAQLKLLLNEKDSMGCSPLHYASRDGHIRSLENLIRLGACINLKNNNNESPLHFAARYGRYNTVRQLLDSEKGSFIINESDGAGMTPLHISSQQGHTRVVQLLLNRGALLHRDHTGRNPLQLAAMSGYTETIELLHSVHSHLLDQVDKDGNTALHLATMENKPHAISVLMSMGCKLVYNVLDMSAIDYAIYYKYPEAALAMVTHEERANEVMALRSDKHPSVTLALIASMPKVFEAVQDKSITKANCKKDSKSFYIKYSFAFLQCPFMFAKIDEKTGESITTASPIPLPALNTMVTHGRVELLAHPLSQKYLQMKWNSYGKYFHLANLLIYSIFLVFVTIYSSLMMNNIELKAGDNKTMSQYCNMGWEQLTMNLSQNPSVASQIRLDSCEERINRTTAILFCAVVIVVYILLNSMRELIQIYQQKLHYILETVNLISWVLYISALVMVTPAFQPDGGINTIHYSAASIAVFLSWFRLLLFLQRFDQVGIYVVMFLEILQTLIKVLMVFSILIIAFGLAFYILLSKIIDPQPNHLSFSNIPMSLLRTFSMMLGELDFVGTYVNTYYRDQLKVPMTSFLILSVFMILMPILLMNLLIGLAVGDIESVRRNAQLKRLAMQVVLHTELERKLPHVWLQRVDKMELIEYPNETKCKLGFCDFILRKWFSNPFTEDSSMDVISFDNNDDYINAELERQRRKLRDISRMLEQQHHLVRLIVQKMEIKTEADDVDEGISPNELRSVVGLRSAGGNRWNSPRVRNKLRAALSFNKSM
Procedure: Oocyte and larval physiology were performed largely as described in Hamada, et al., Nature 454, 217-220 (2008) and Pulver, et al., J Neurophysiol 101, 3075-3088 (2009), with additional details provided in below. Chemical sensitivities of wild type and mutant (dTRPA1-2C) channels were assessed by normalizing all currents to currents observed at 1 mM AITC.
Agonist-evoked dTRPA1 currents were recorded as previously described in (Hamada, et al., Nature 454, 217-220 (2008)), with the following modifications. Agonists of interest were added to the oocyte perfusion buffer (96 mM NaCl, 1 mM MgCl2, 4 mM KCl, and 5 mM HEPES, pH 7.6). Voltage was initially held at −60 mV, and a 300-ms voltage ramp (−60 mV to 60 mV) per sec was applied to dTRPA1- or AgTRPA1-expressing oocytes during perfusion of agonist-containing buffer. Typical oocyte resting membrane potentials were between −25 and −60 mV. […] EC50s for wild type dTRPA1 channels were obtained at −60 mV, with AITC provided for 60 sec with 30 sec intervals between increasing concentrations.
Substitutions of cysteine/lysine residues in dTrpA1 were made by swapping a region of wild type cDNA sequence including codons of cysteine or lysine with mutated cassettes. […]

uninjected oocytes = test: Two-electrode voltage clamping on uninjected oocytes; type: cell-based, Xenopus laevis; settings: 3 mM AITC, 1 mM CA, 0.1 mM NMM
Drosophila flies = test: Proboscis extension response (PER) behavioral assay; type: in vivo, Drosophila melanogaster; settings: for Effect on PER in dTrpA1 loss-of-function mutants / Effect on PER in painless mutants / Effect on proboscis extension response (PER) / feeding: ingestion permitted; for Acceptance on first offering: first of five tastant offerings; for Effect on PER in painless mutants: painless mutant flies; for Effect on proboscis extension response (PER) / feeding: 350 mM sucrose with 2 mM AITC
dTRPA1 [1] = target: T2, dTRPA1 (Drosophila melanogaster, UniProt Q7Z020); test: Two-electrode voltage clamping on Xenopus laevis oocytes expressing dTRPA1; type: cell-based
T2 sequence (Q7Z020 1-1197): T1 sequence (Q7Z020 1-1197 C650S/C670S) with S650C, S670C

agTRPA1 = settings: cited from earlier work
dTRPA1 [2] = target: T2, dTRPA1; settings: cited from earlier work
mammalian TRPA1s = settings: conserved cysteine-independent; cited from earlier work
mammalian nociceptors = settings: cited from earlier work
flies = settings: in vivo; cited from earlier work
nematodes = settings: in vivo; cited from earlier work
[3] = wild type flies, 10 mM NMM or 6 mM CA
[4] = wild-type dTRPA1 in Xenopus oocytes

Compound: C=CCN=C=S [AITC, allyl isothiocyanate]
- AITC sensitivity of dTRPA1-2C versus wild type (dTRPA1-2C): low sensitivity; also recorded: significantly decreased
- Response of uninjected oocytes (uninjected oocytes): did not respond
- Effect on PER in dTrpA1 loss-of-function mutants (Drosophila flies): no reduction
- Acceptance on first offering (Drosophila flies): usually accepted
- Effect on PER in painless mutants (Drosophila flies): significantly inhibited
- Effect on proboscis extension response (PER) / feeding (Drosophila flies; [3]): dramatically inhibited
- Activation of dTRPA1 (dTRPA1 [1]): activated

Compound: N.N.N.N.N.N.N.N.N.N.N.N.N.N.[Cl-].[Cl-].[Cl-].[Cl-].[Cl-].[Cl-].[O-2].[O-2].[Ru+3].[Ru+3].[Ru+4] [ruthenium red]
- Inhibition of warmth-activated agTRPA1 currents (agTRPA1): partially inhibits
- Inhibition of warmth-activated dTRPA1 currents (dTRPA1 [2]): partially inhibits
- Inhibition of agonist-elicited currents (dTRPA1 [1]; 100 μM ruthenium red applied): inhibited

Compound: CN1CCCC1c1cccnc1 (centres unmarked) [nicotine]
- Activity on mammalian TRPA1s (mammalian TRPA1s): agonists
- Activation of dTRPA1 (dTRPA1 [1]): did not activate
- Response of dTRPA1 expressing oocytes (dTRPA1 [1]): did not respond

Compound: CCN(CC)C(=O)c1cccc(C)c1 [DEET, N,N-diethyl-m-toluamide]
- Activation of dTRPA1 (dTRPA1 [1]; [4]): failed to activate

Compound: CN1C(=O)C=CC1=O [NMM, N-methyl-maleimide]
- Response of uninjected oocytes (uninjected oocytes): did not respond
- Effect on PER in dTrpA1 loss-of-function mutants (Drosophila flies): no reduction
- Acceptance on first offering (Drosophila flies): usually accepted
- Effect on ingestion in previously published ingestion-independent PER assay (Drosophila flies; ingestion-independent PER assay of Al-Anzi et al.): no effect
- Effect on PER in painless mutants (Drosophila flies): significantly inhibited
- Change of the compound's effect on PER upon dTRPA1 knockdown (Drosophila flies; tissue-specific dTRPA1 RNAi with Dll-Gal4, MJ94-Gal4 or Gr66a-Gal4, 10 mM NMM in 350 mM sucrose): robustly reduced
- Effect on proboscis extension response (PER) / feeding (Drosophila flies; [3]): robustly inhibited

Compound: COc1cc(CNC(=O)CCCC/C=C/C(C)C)ccc1O [capsaicin]
- Effect on mammalian nociceptors (mammalian nociceptors): activates
- Acute response in flies (flies): no acute response
- Acute response in nematodes (nematodes): no acute response

Compound: CCCCN(CCC(=O)OCC)C(C)=O [IR-3535]
- Activation of dTRPA1 (dTRPA1 [1]; [4]): failed to activate

Compound: CC1(C)[C@H](C(=O)O[C@H](C#N)c2cccc(Oc3ccccc3)c2)[C@@H]1C=C(Br)Br [deltamethrin]
- Activation of dTRPA1 (dTRPA1 [1]): failed to activate

Compound: 2-aminoethoxydiphenyl borate [2-APB]
- Activity on mammalian TRPA1s (mammalian TRPA1s): agonists

Compound: Cn1c(=O)c2c(ncn2C)n(C)c1=O [caffeine]
- Effect on PER in dTrpA1 loss-of-function mutants (Drosophila flies): inhibited
- Effect on PER when only leg contact with food permitted (Drosophila flies; wild type flies, tastant contacts only legs, 350 mM sucrose with 100 mM caffeine, 2 mM AITC, 10 mM NMM or 6 mM CA): robustly inhibited
